Measurements from US5159080A, “Indole compounds, a process for their preparation, and pharmaceutical compositions containing them” (Madaus AG, priority 1988, dated 1992).
Like-named read-outs stand apart in the source and are kept apart here.

Key:
[1] = Change of heart frequency and average blood pressure in narcotized rats (maximum effect over 2 hours); type: in vivo; conditions: Rattus norvegicus, iv, maximum effect over 2 h, hemi-tartrate; for change in vivo at 2 mg/kg: 2 mg/kg i.v.; for change in vivo at 10 mg/kg: 10 mg/kg i.v.; for change in vivo at 5 mg/kg: 5 mg/kg i.v.; for change in vivo at 20 mg/kg: 20 mg/kg i.v.; for change in vivo at 50 mg/kg: 50 mg/kg i.v.
guinea pig left auricles = experiment: Isolated left auricles stimulated with 1 Hz, inotropic effect; conditions: Cavia porcellus, read-out: Maximum effect in % of initial value, LEFT AURICLE INTROPIC; for Emax at 4 µg/mL: 4.0 μg/ml; for Emax at 10 µg/mL: 10.0 μg/ml; for Emax at 2 µg/mL: 2.0 μg/ml; for Emax at 20 µg/mL: 20.0 μg/ml
Procedure: (§1) The test process employed is described, inter alia, in: Staff of the Department of Pharmacology, University of Edinburgh (1970): Pharmacological Experiments on Isolated Preparation, Churchill Livingston, Edinburgh, London and New York, page 112.
(§2) Animals having a body weight of about 500 g, were used and were divided into groups of 4 animals each. The compounds to be tested were dissolved in tyrode solution/sodium chloride solution 50:50 v/v and the desired concentration adjusted in the bath liquid. The experiment was carried out in the known manner.

[2] = system: guinea pig right auricles; experiment: Isolated, spontaneously beating right auricles, chronotropic effect; conditions: Cavia porcellus, read-out: Maximum effect in % of initial value, RIGHT AURICLE CHRONOTROPIC; for Emax at 2 µg/mL: 2.0 μg/ml; for Emax at 4 µg/mL: 4.0 μg/ml; for Emax at 10 µg/mL: 10.0 μg/ml; for Emax at 20 µg/mL: 20.0 μg/ml
Procedure: as §1, §2

[3] = read-out: CHANGE OF HEART FREQUENCY (%)
[4] = read-out: BLOOD PRESSURE CHANGE AVERAGE PRESSURE (%)

Compound	change in vivo at 2 mg/kg [1, 3] [%]	change in vivo at 10 mg/kg [1, 4] [%]	change in vivo at 10 mg/kg [1, 3] [%]	Emax at 4 µg/mL (guinea pig left auricles) [%]	Emax at 10 µg/mL (guinea pig left auricles) [%]	Emax at 2 µg/mL [2] [%]	Emax at 4 µg/mL [2] [%]	Emax at 10 µg/mL [2] [%]	change in vivo at 5 mg/kg [1, 4] [%]	change in vivo at 5 mg/kg [1, 3] [%]	Emax at 2 µg/mL (guinea pig left auricles) [%]	change in vivo at 2 mg/kg [1, 4] [%]	Emax at 20 µg/mL (guinea pig left auricles) [%]	Emax at 20 µg/mL [2] [%]	change in vivo at 20 mg/kg [1, 4] [%]	Emax at 60 µg/mL (guinea pig left auricles; 60.0 μg/ml) [%]	Emax at 60 µg/mL ([2]; 60.0 μg/ml) [%]	change in vivo at 20 mg/kg [1, 3] [%]	change in vivo at 50 mg/kg [1, 4] [%]	change in vivo at 50 mg/kg [1, 3] [%]
CN1CC[C@@H]2CC(=O)c3[nH]c4ccc(O)cc4c3C[C@@H]2C1 (relative stereo) [SI-WG 571, 1.3.4.4a,5,7,12, 12a-octahydro-10-hydroxy-2-methyl-2H-pyrido[3',4':4,5] cyclohept [1,2-b] indol-6-one]	-1.4	-14.1	-11.6	-3.9	-11.4	-3.1	-8.4	-9.1												
CN1CC[C@@H]2CC(=O)c3[nH]c4ccc(C(C)(C)C)cc4c3C[C@@H]2C1 (relative stereo) [SI-WG 578]	-6.2			-12.1	-10.9	-19.4	-28.1	-52.9	2	-10.2	-3.6									
COc1cccc2c3c([nH]c12)C(=O)C[C@H]1CCN(C)C[C@H]1C3 (relative stereo) [SI-WG 583]	-3.4	-12	-11.2	-5.1	-14.9	-16.1	-23.7	-30.3	-11.7	-10		2.3								
COc1cc2[nH]c3c(c2c(OC)c1OC)C[C@@H]1CN(C)CC[C@@H]1CC3=O (relative stereo) [SI-WG 587]		11.6	-4.8	14.9	29.4		-10.4	-13.9	12.2				31.8	-19.8						
CN1CC[C@@H]2CC(=O)c3[nH]c4ccc(C#N)cc4c3C[C@@H]2C1 (relative stereo) [SI-WG 600]		4.8	-9.4	23	30	-25.2	-32.7	-49.1	-6	-8.9	12.4	9.5								
CC(=O)Nc1ccc2[nH]c3c(c2c1)C[C@@H]1CN(C)CC[C@@H]1CC3=O (relative stereo) [SI-WG 604]		-10.7			9.8			-10.2					8.2	-15.6	-15.6	13.8	-24.7			
CN1CC[C@@H]2CC(=O)c3[nH]c4c(O)cccc4c3C[C@@H]2C1 (relative stereo) [SI-WG 625]				-4.7	-8.9	-13.8	-17.4	-26.3	-9.4	-8.4										
CC(=O)c1[nH]c2ccccc2c1CC1CN(C)CCC1=O (stereo not shown) [SI-WG 331, 2-Acetyl-3-(N.methyl-4-'-piperidon-3'-ylmethyl)-indole]					14	-7		-12			8		31	-23	-18.4			-9.7	-29.1	-19.3
CN1CCC2=C(Cc3c([nH]c4ccccc34)C(=O)C2)C1 [SI-WG 334a, 1,3,4,5,7,12-hexahydro-2-methyl-2H-pyrido [3',4':4,5]-cyclohept [1,2-b] indol-6-one]	-21.2	-30.1	-20.8		25	-14		-29	-25.9	-19.6	26	-17.2	33	-43						
